Test results reported in US7754228B2, “Cytotoxic T-cell epitopes from Chlamydia” (Novartis Vaccines and Diagnostics, Srl, priority 2002, dated 2010).
Entries after “also recorded” stand apart in the source; their conditions may differ. Where two headings read alike, the source gives them in different places.

Legend:
HLA A2 = type: binding, human; conditions: for Mean 1 / Mean 2 / binding to HLA A2 (in words): RMA-S/A2 cells; for Mean 1: peptide and only anti-mouse secondary antibody; for Mean 1 / Mean 2: FACS mean; for Mean 2: peptide, anti-A2 Mab BB7.2 and secondary antibody; for binding to HLA A2 (in words): in vitro binding assay
[1] = system: CD8^+ cells from immunised transgenic mice; experiment: IFN-γ/CD8+ ELISpot assay after DNA immunisation of HLA-A2 transgenic mice; type: cell-based; conditions: for Mean IFN-γ^+ve per 10^6 CD8^+ve cells: after subtraction of HepB negative controls; for number of IFN-γ secreting CD8^+ (in words): spleen cells of DNA immunised transgenic mice
From the text: Full-length C.pneumoniae and C.trachomatis genes encoding the polypeptides which contain CTL epitopes were amplified by PCR using the primers in Table 4 and cloned into plasmid expression vector pCMVKASF2-120, from which the gp120 sequence had been previously excised by treatment with NheI and SalI restriction enzymes. The chlamydial sequences were thus downstream of the tPA signal sequence.
The plasmids were used for DNA immunisation of transgenic mice expressing the human HLA-A2 gene which express a chimeric class I molecule composed of the α1 and α2 domains of HLA-A2.1 and the α3 transmembrane and cytoplasmic domains of H-2K^b.
Mice were immunised at days 0, 21 and 35 by intramuscular injection of 50μg endotoxin-free recombinant plasmid DNA. One week after the third immunisation, the animals were sacrificed, spleens were removed and CD8+ cells were purified by means of CD8α(Ly-2) Microbeads and LS Separation Columns following the technical procedures described by Miltenyi Biotec™. These CD8^+ cells were tested by Elispot assay to detect cells which secrete IFN-γ in response to given peptides. The Elispot procedure was as follows: • 1. 96-well nitrocellulose plates are coated with 5 μg/ml anti-mouse IFN-γ in 100 μl carbonate buffer, pH 9.2. Cover plate with lid and incubate overnight (o.n.) at 4° C. • 2. Discard coating antibody. Rinse plates 3 times with PBS (200 μl per rinse). Shake excess liquid from plate and pat bottom of plate with dry absorbent paper. • 3. Add 200 μl blocking solution (PBS-BSA 1%) to each well to saturate remaining binding sites and incubate 2 hours at 37° C. (or o.n. at 4° C.). • 4. Discard blocking solution, wash plate 3 times with PBS (200 μl per rinse). Shake excess liquid from plate and pat bottom of plate with dry absorbent paper. • 5. Add 100 μl complete medium and incubate 10 minutes at room temperature. Discard liquid and pat bottom of plate with dry absorbent paper. • 6. Add cells (5×10^4 CD8^+ from immunised transgenic mice and 2×10^5 irradiated spleen cells from non-immunised transgenic mice) with complete medium supplemented with the tested peptide (5, 10 or 20 μg/ml) and IL-2 (10 units/ml). • 7. Incubate 20-24 hours in a humidified 37° C., 5% CO2 incubator. • 8. Take off medium, add 200 μl per wash of ice-cold distilled water and incubate on ice for 10 minutes. Then wash ten times in wash buffer (PBS-Tween 0.05%), 2001 per wash. Shake excess liquid from plate and pat bottom of plate with dry absorbent paper. • 9. To detect IFN-γ spots, add 1 μg/ml biotinylated anti mouse IFN-γ in 100 μl in Elispot dilution buffer (PBS-BSA 1%) and incubate 2 hours at 37° C. • 10. Wash plate 3 times with wash buffer (PBS-Tween 0.05%), 200 μl per wash and 3 times with PBS without Tween (200 μl). Shake excess liquid from plate and pat bottom of plate with dry absorbent paper. • 11. Add 100 μl 1:2000 dilution of alkaline phosphatase-coupled avidin in PBS-BSA 1% (Sigma). Incubate 1 hour at 37° C. • 12. Wash plate 3 times with wash buffer (PBS-Tween 0.05%), 2001il per wash and 3 times with PBS without Tween (200 μl). Shake excess liquid from plate and pat bottom of plate with dry absorbent paper. • 13. Spots of […] secreting cells are visualised by adding 50 μl of the ready-to-use substrate BCIP/NBT (Sigma) dissolved in water. The reaction is stopped after 45 minutes at 37° C. by several washes with distilled water.
Values are shown after subtraction of HepB negative controls.

Q: How did the “High - B” value (HLA A2) turn out when SITVFRWLV [CH58] was run?
A: The value was −15.

Q: And the “Δ Mean” value (HLA A2)?
A: The value was 145.

Q: And the “Mean 1” value (HLA A2; 10 μM peptide)?
A: The value was 155.

Q: And the “Mean 2” value (HLA A2; 10 μM peptide)?
A: Its value is 300.

Q: What about the “binding to HLA A2 (in words)” value (HLA A2) of the same sequence?
A: Its value is “negative results”.

Q: What about the “Mean IFN-γ^+ve per 10^6 CD8^+ve cells” value ([1]; peptide dose 5 μg/ml) of the same sequence?
A: Its value is 1046 per 10^6 CD8^+ve cells.

Q: What about the “Mean IFN-γ^+ve per 10^6 CD8^+ve cells” value ([1]; peptide dose 10 μg/ml) of the same sequence?
A: Its value is 980 per 10^6 CD8^+ve cells.

Q: And the “Mean IFN-γ^+ve per 10^6 CD8^+ve cells” value ([1]; peptide dose 20 μg/ml)?
A: Its value is 986 per 10^6 CD8^+ve cells.

Q: What about the “number of IFN-γ secreting CD8^+ (in words)” value (“number” for short) [1] of the same sequence?
A: Its value is “well above background levels; also recorded: strongly positive”.

Q: How did the “High - B” value (HLA A2) turn out when YLLEEIYTV [CH6] was run?
A: The value was 130.

Q: And the “Δ Mean” value (HLA A2)?
A: The value was 376.

Q: And the “Mean 1” value (HLA A2; 10 μM peptide)?
A: Its value is 198.

Q: And the “Mean 2” value (HLA A2; 10 μM peptide)?
A: Its value is 574.

Q: What about the “binding to HLA A2 (in words)” value (HLA A2) of the same sequence?
A: The value was “bind to HLA A2”.

Q: And the “Mean IFN-γ^+ve per 10^6 CD8^+ve cells” value ([1]; peptide dose 5 μg/ml)?
A: The value was 106.8 per 10^6 CD8^+ve cells.

Q: And the “Mean IFN-γ^+ve per 10^6 CD8^+ve cells” value ([1]; peptide dose 10 μg/ml)?
A: Its value is 486.8 per 10^6 CD8^+ve cells.

Q: And the “Mean IFN-γ^+ve per 10^6 CD8^+ve cells” value ([1]; peptide dose 20 μg/ml)?
A: The value was 266.6 per 10^6 CD8^+ve cells.

Q: What about the “number” value [1] of the same sequence?
A: The value was “well above background levels”.

Q: Which results are given for GLTEEIDYV [CH10]?
A: High - B (HLA A2): 139; Δ Mean (HLA A2): 385; Mean 1 (HLA A2; 10 μM peptide): 202; Mean 2 (HLA A2; 10 μM peptide): 587; binding to HLA A2 (in words) (HLA A2): bind to HLA A2; Mean IFN-γ^+ve per 10^6 CD8^+ve cells ([1]; peptide dose 5 μg/ml): 226 per 10^6 CD8^+ve cells; Mean IFN-γ^+ve per 10^6 CD8^+ve cells ([1]; peptide dose 10 μg/ml): 233.3 per 10^6 CD8^+ve cells; Mean IFN-γ^+ve per 10^6 CD8^+ve cells ([1]; peptide dose 20 μg/ml): 200 per 10^6 CD8^+ve cells; number of IFN-γ secreting CD8^+ (in words) [1]: well above background levels

Q: With YMDNNLFYV [CH7] as the sequence, how does the “High - B” value (HLA A2) read?
A: The value was 102.

Q: And the “Δ Mean” value (HLA A2)?
A: Its value is 348.

Q: And the “Mean 1” value (HLA A2; 10 μM peptide)?
A: Its value is 203.

Q: What about the “Mean 2” value (HLA A2; 10 μM peptide) of the same sequence?
A: The value was 551.

Q: And the “binding to HLA A2 (in words)” value (HLA A2)?
A: The value was “bind to HLA A2”.

Q: What about the “ΔMean at high concentrations of peptide (in words)” value (HLA A2; high peptide concentrations, non-homogeneous fluorescent signal, most likely non-specific effects) of the same sequence?
A: The value was “Very low ΔMean values”.

Q: And the “Mean IFN-γ^+ve per 10^6 CD8^+ve cells” value ([1]; peptide dose 5 μg/ml)?
A: Its value is 366 per 10^6 CD8^+ve cells.

Q: And the “Mean IFN-γ^+ve per 10^6 CD8^+ve cells” value ([1]; peptide dose 10 μg/ml)?
A: The value was 400 per 10^6 CD8^+ve cells.

Q: And the “Mean IFN-γ^+ve per 10^6 CD8^+ve cells” value ([1]; peptide dose 20 μg/ml)?
A: The value was 433 per 10^6 CD8^+ve cells.

Q: What about the “number” value [1] of the same sequence?
A: The value was “well above background levels”.

Q: How did the “High - B” value (HLA A2) turn out when YVFDRILKV [CH13] was run?
A: The value was 119.

Q: And the “Δ Mean” value (HLA A2)?
A: The value was 365.

Q: What about the “Mean 1” value (HLA A2; 100 μM peptide) of the same sequence?
A: The value was 217.

Q: What about the “Mean 2” value (HLA A2; 100 μM peptide) of the same sequence?
A: Its value is 582.

Q: And the “binding to HLA A2 (in words)” value (HLA A2)?
A: The value was “bind to HLA A2”.

Q: What about the “Mean IFN-γ^+ve per 10^6 CD8^+ve cells” value ([1]; peptide dose 5 μg/ml) of the same sequence?
A: The value was 466.8 per 10^6 CD8^+ve cells.

Q: And the “Mean IFN-γ^+ve per 10^6 CD8^+ve cells” value ([1]; peptide dose 10 μg/ml)?
A: Its value is 700 per 10^6 CD8^+ve cells.

Q: And the “Mean IFN-γ^+ve per 10^6 CD8^+ve cells” value ([1]; peptide dose 20 μg/ml)?
A: The value was 540 per 10^6 CD8^+ve cells.

Q: What about the “number” value [1] of the same sequence?
A: Its value is “well above background levels”.
